For 34 compounds, IC50 results are on record in patent publication US11306078B2, “Piperidine CXCR7 receptor modulators” (IDORSIA PHARMACEUTICALS LTD., priority 2016, dated 2022).

Broadly, the IC50 is the concentration at which inhibition is half-maximal. A low value points to greater potency.

Sequence of human chemokine receptor CXCR7 (P25106 whole entry): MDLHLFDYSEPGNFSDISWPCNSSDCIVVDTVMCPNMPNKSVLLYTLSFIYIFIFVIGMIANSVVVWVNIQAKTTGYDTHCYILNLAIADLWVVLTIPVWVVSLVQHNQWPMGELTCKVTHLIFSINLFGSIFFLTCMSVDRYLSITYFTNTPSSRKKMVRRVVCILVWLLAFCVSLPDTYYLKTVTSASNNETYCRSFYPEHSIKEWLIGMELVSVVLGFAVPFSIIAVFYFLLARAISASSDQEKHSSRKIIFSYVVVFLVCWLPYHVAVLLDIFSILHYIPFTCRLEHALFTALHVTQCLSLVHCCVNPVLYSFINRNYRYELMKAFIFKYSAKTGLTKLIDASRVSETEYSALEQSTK

This experiment has as its target human chemokine receptor CXCR7 (Homo sapiens (Human), UniProt P25106). Briefly: Tango CXCR7-bla U2OS beta-arrestin recruitment assay (beta-lactamase reporter, FRET), antagonism of CXCL12/SDF1-α.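 Note: compounds preincubated 15 min before CXCL12 addition, then 22 h at 37 °C, FRET emission ratio read with CCF4-AM substrate after 2 h.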 The following applies: antagonistic effect on CXCR7; Tango CXCR7-bla U2OS cells, CXCL12/SDF1-α at its EC80. It is filed as cell-based. In general terms: Recruitment of arrestin is a read-out of receptor activation apart from second messengers.
`O=C(N[C@H]1CCN(CC2CC2)C[C@@H]1C(=O)NC1(c2ccccc2O)CC1)c1cc(-c2ccc(F)cc2F)on1` [Example 4.076] showed an IC50 of 0.097 µM. With `O=C(N[C@@H]1CCN(CC2CC2)C[C@H]1C(=O)NC1(c2ncccn2)CC1)c1cc(-c2ccc(C(F)(F)F)cc2)on1` (single isomer, unassigned) [Example 1.192a, (3R*,4R*)-1-Cyclopropylmethyl-4-{[5-(4-trifluoromethyl-phenyl)-isoxazole-3-carbonyl]-amino}-piperidine-3-carboxylic acid (1-pyrimidin-2-yl-cyclopropyl)-amide] the figure was 0.854 µM; with `CCN(CC)C(=O)[C@H]1CN(CC2CC2)CC[C@@H]1NC(=O)c1cc(-c2ccc(F)cc2F)on1` [Example 4.066], 0.32 µM. For `O=C(N[C@@H]1CCN(C2CCCCC2)C[C@H]1C(=O)NCc1ncccn1)c1cc(-c2ccc(F)cc2F)on1` (racemic) [Example 1.032, rac-(3R*,4R*)-1-Cyclohexyl-4-{[5-(2,4-difluoro-phenyl)-isoxazole-3-carbonyl]-amino}-piperidine-3-carboxylic acid (pyrimidin-2-ylmethyl)-amide] the value was 0.154 µM. With `CN(C)C(=O)[C@@H]1CN([C@@H]2CCC[C@H]2CO)CC[C@H]1NC(=O)c1cc(-c2ccc(F)cc2F)on1` [Example 2.014] the figure was 0.269 µM. For the compound `COCCC(C)(C)NC(=O)[C@H]1CN(C2CCCCC2)CC[C@@H]1NC(=O)c1cc(-c2ccc(F)cc2F)on1` [Example 4.003], the 50% inhibitory concentration (IC50) came out at 0.333 µM. For `Cc1cccc([C@H](C)NC(=O)[C@@H]2CN(C3CCCCC3)CC[C@H]2NC(=O)c2cc(-c3ccc(F)cc3F)on2)n1` (single isomer, unassigned) [Example 1.188c, (3R*,4R*)-1-Cyclohexyl-4-{[5-(2,4-difluoro-phenyl)-isoxazole-3-carbonyl]-amino}-piperidine-3-carboxylic acid [(S)-1-(6-methyl-pyridin-2-yl)-ethyl]-amide] the value was 0.179 µM; for `N#Cc1ccc(-c2cc(C(=O)N[C@H]3CCN(CC4CC4)C[C@@H]3C(=O)NC3(c4ncccn4)CC3)no2)cc1` [Example 7.009, (3S,4S)-4-{[5-(4-Cyano-phenyl)-isoxazole-3-carbonyl]-amino}-1-cyclopropylmethyl-piperidine-3-carboxylic acid (1-pyrimidin-2-yl-cyclopropyl)-amide], 0.24 µM; for `CC1(NC(=O)[C@H]2CN(C3CCCCC3)CC[C@@H]2NC(=O)c2cc(-c3ccc(F)cc3F)on2)CC1` [Example 4.001, (3S,4S)-1-Cyclohexyl-4-{[5-(2,4-difluoro-phenyl)-isoxazole-3-carbonyl]-amino}-piperidine-3-carboxylic Acid (1-methyl-cyclopropyl)-amide], 0.133 µM. The compound `Cc1ncsc1CNC(=O)[C@@H]1CN(C2CCCCC2)CC[C@H]1NC(=O)c1cc(-c2ccc(F)cc2F)on1` (racemic) [Example 1.033, rac-(3R*,4R*)-1-Cyclohexyl-4-{[5-(2,4-difluoro-phenyl)-isoxazole-3-carbonyl]-amino}-piperidine-3-carboxylic acid (4-methyl-thiazol-5-ylmethyl)-amide] came in with an IC50 of 0.591 µM. For `Cc1ccc(-c2cc(C(=O)N[C@H]3CCN(CC4CC4)C[C@@H]3C(=O)NC3(c4ncccn4)CC3)no2)cc1C` [Example 7.003, (3S,4S)-1-Cyclopropylmethyl-4-{[5-(3,4-dimethyl-phenyl)-isoxazole-3-carbonyl]-amino}-piperidine-3-carboxylic acid (1-pyrimidin-2-yl-cyclopropyl)-amide], the IC50 was determined as 0.21 µM. Consider `CC(C)N1CC[C@H](NC(=O)c2ncc(-c3ccc(F)cc3F)o2)[C@@H](C(=O)NC2(c3ncccn3)CC2)C1` [Example 2.099], for which inhibition was half-maximal at 0.343 µM (IC50). For `CN(C)C(=O)[C@@H]1CN(C2CCC2)CC[C@H]1NC(=O)c1cc(-c2ccc(F)cc2F)on1` [Example 2.028] the value was 0.06 µM; for `CN(CCc1ccccc1)C(=O)[C@@H]1CN(CCO)CC[C@H]1NC(=O)c1cc(-c2ccc(F)cc2F)on1` [Example 2.052], 0.267 µM. For `O=C(N[C@@H]1CCN(C2CCCCC2)C[C@H]1C(=O)NC1(c2ccccn2)CC1)c1noc(-c2ccc(F)cc2F)n1` [Example 3.01] the value was 0.069 µM; for `C[C@@H](NC(=O)[C@@H]1CN([C@@H]2CCCC[C@H]2O)CC[C@H]1NC(=O)c1cc(-c2ccc(F)cc2F)on1)c1ccccn1` [Example 2.053], 0.026 µM.

`O=C(N[C@H]1CCN(CC2CC2)C[C@@H]1C(=O)NC1(c2ccccn2)CC1)c1cn(-c2ccc(F)cc2F)nn1` [Example 2.091] had a half-maximal inhibitory concentration (IC50) of 0.062 µM. For `CC1(NC(=O)[C@@H]2CN(C3CCCCC3)CC[C@H]2NC(=O)c2cc(-c3ccc(F)cc3F)on2)CCC1` [Example 4.016] the value was 0.463 µM; for `NC(=O)CNC(=O)[C@@H]1CN(C2CCCCC2)CC[C@H]1NC(=O)c1cc(-c2ccc(F)cc2F)on1` (racemic) [Example 1.014, rac-(3R*,4R*)-1-Cyclohexyl-4-{[5-(2,4-difluoro-phenyl)-isoxazole-3-carbonyl]-amino}-piperidine-3-carboxylic acid carbamoylmethyl-amide], 0.289 µM. For `O=C(N[C@@H]1CCN(CC2CC2)C[C@H]1C(=O)N1CC[C@@H]1c1ccccc1)c1cc(-c2ccc(F)cc2F)on1` [Example 4.067b] the value was 0.002 µM. For `Cc1ccccc1C1(NC(=O)[C@H]2CN(C3CCC3)CC[C@@H]2NC(=O)c2cc(-c3ccc(F)cc3F)on2)CC1` [Example 4.088] the value was 0.138 µM; for `O=C(N[C@H]1CCN(C2CCCCC2)C[C@@H]1C(=O)NC(CO)c1ccccn1)c1cc(-c2ccc(F)cc2F)on1` (stereo partly shown) [Example 4.013], 0.145 µM.

For the compound `CN(C)C(=O)[C@@H]1CN(CC2=CCCC2)CC[C@H]1NC(=O)c1cc(-c2ccc(F)cc2F)on1` [Example 2.036], inhibition was half-maximal at 0.165 µM (IC50). With `C[C@@H](NC(=O)[C@H]1CN(C2CCC2)CC[C@@H]1NC(=O)c1cc(-c2ccc(F)cc2F)on1)c1ncccc1F` [Example 4.098a] the figure was 0.012 µM; with `C[C@@H](NC(=O)[C@@H]1CN(CC2CC2)CC[C@H]1NC(=O)c1cc(-c2c(F)cc(F)cc2F)on1)c1cnccn1` (relative stereo) [Example 1.131, (3R*,4R*)-1-Cyclopropylmethyl-4-{[5-(2,4,6-trifluoro-phenyl)-isoxazole-3-carbonyl]-amino}-piperidine-3-carboxylic acid ((R)-1-pyrazin-2-yl-ethyl)-amide], 0.102 µM.

`O=C(N[C@@H]1CCN(CC2CC2)C[C@H]1C(=O)NC1(c2ncccn2)CC1)c1cc(-c2ccc(F)c(F)c2F)on1` (single isomer, unassigned) [Example 1.194a, (3R,4R)-1-Cyclopropylmethyl-4-{[5-(2,3,4-trifluoro-phenyl)-isoxazole-3-carbonyl]-amino}-piperidine-3-carboxylic acid (1-pyrimidin-2-yl-cyclopropyl)-amide or (3S,4S)-1-cyclopropylmethyl-4-{[5-(2,3,4-trifluoro-phenyl)-isoxazole-3-carbonyl]-amino}-piperidine-3-carboxylic acid (1-pyrimidin-2-yl-cyclopropyl)-amide] came in with an IC50 of 0.013 µM. For `O=C(N[C@H]1CCN(CC2CC2)C[C@@H]1C(=O)NC1(c2ncccn2)CC1)c1noc(-c2ccc(F)cc2F)n1` [Example 7.008, (3S,4S)-1-Cyclopropylmethyl-4-{[5-(2,4-difluoro-phenyl)-[1,2,4]oxadiazole-3-carbonyl]-amino}-piperidine-3-carboxylic acid (1-pyrimidin-2-yl-cyclopropyl)-amide] the value was 0.051 µM. With `Cc1csc(CNC(=O)[C@@H]2CN(C3CCCCC3)CC[C@H]2NC(=O)c2cc(-c3ccc(F)cc3F)on2)n1` (racemic) [Example 1.068, rac-(3R*,4R*)-1-Cyclohexyl-4-{[5-(2,4-difluoro-phenyl)-isoxazole-3-carbonyl]-amino}-piperidine-3-carboxylic acid (4-methyl-thiazol-2-ylmethyl)-amide] the figure was 0.512 µM; with `CN(C)C(=O)[C@@H]1CN(C2CCCCC2)CC[C@H]1NC(=O)c1cn(-c2ccc(F)cc2F)nn1` (racemic) [Example 1.095, rac-(3R*,4R*)-1-Cyclohexyl-4-{[1-(2,4-difluoro-phenyl)-1H-[1,2,3]triazole-4-carbonyl]-amino}-piperidine-3-carboxylic acid dimethylamide], 0.254 µM. `O=C(N[C@@H]1CCN(C2CCCC2)C[C@H]1C(=O)NC1(c2ncccn2)CC1)c1cc(-c2c(F)cc(F)cc2F)on1` (racemic) [Example 1.176, rac-(3R*,4R*)-1-Cyclopentyl-4-{[5-(2,4,6-trifluoro-phenyl)-isoxazole-3-carbonyl]-amino}-piperidine-3-carboxylic acid (1-pyrimidin-2-yl-cyclopropyl)-amide] registered an IC50 of 0.006 µM. As to `CN(C)C(=O)[C@@H]1CN(C2CCCCC2)CC[C@H]1NC(=O)c1noc(-c2ccc(F)cc2F)n1` (racemic) [Example 3.007, rac-(3R*,4R*)-1-Cyclohexyl-4-{[5-(2-difluoro-phenyl)-[1,2,4]oxadiazole-3-carbonyl]-amino}-piperidine-3-carboxylic acid dimethylamide], the IC50 is 0.162 µM. `C[C@@H](NC(=O)[C@H]1CN(CC2CC2)CC[C@@H]1NC(=O)c1cc(-c2c(F)cc(F)cc2F)on1)c1ccccn1` (single isomer, unassigned) [Example 1.123a, (3S,4S)-1-Cyclopropylmethyl-4-{[5-(2,4,6-trifluoro-phenyl)-isoxazole-3-carbonyl]-amino}-piperidine-3-carboxylic acid ((R)-1-pyridin-2-yl-ethyl)-amide or (3R,4R)-1-Cyclopropylmethyl-4-{[5-(2,4,6-trifluoro-phenyl)-isoxazole-3-carbonyl]-amino}-piperidine-3-carboxylic acid ((R)-1-pyridin-2-yl-ethyl)-amide] came in with an IC50 of 0.004 µM. With `CN(C)C(=O)[C@@H]1CN(Cc2ccccc2F)CC[C@H]1NC(=O)c1cc(-c2ccc(F)cc2F)on1` [Example 2.083] the figure was 0.777 µM; with `CCN1CC[C@H](NC(=O)c2cc(-c3ccc(F)cc3F)on2)[C@@H](C(=O)NC(C)(C)c2ncccn2)C1` [Example 4.096], 0.033 µM.
